Test results: patent US20240083933A1, “DISACCHARIDES FOR TREATING BONE DISEASES” (UNIVERSITE DE PICARDIE JULES VERNE, priority 2020, published 2024)

Tests used:
HOb cells = assay: Cytotoxicity, MTT test; format: cell-based, human; conditions: 30 μM, culture or mineralizing medium, D2, D4, D7, D14
Procedure: In order to study the toxicity of DP2, cell viability was determined using the MTT test (3-(4,5-dimethyl-2-thiazolyl)-2,5-diphenyl-2H-tetrazolium bromide). The HOb cells were seeded in 48-well plates (10,000 cells per well), two days later the cells were treated with DP2 30 μM and the MTT test was carried out on D2, D4, 7 and D14 post-treatment.
After washing the cells with DMEM (Dulbecco's Modified Eagle Medium) without phenol red, 250 μl of the diluted MTT solution were added to each well and the plate is incubated at 37° C. with 5% CO2 for 1 hour. The amount of MTT reduced in formazan is proportional to living cells. The purple formazan crystals were solubilized in 220 μl of DMSO and after stirring to homogenize the coloration, the absorbance was measured at 560 nm (Envision, PerkinElmer). The cytotoxicity was assessed by comparing the cell viability between the control group and the experimental group.
Before determining whether our molecule alters the survival of osteoblastic cells, its cytotoxicity was tested on the HOb cells by the MTT and WST-1 tests. The cells were treated with DP2 at 30 μM with the culture medium (Ctrl) or the mineralizing medium (Min) for 2, 4, 7 and 14 days (D).

MC3T3-E1 cells = assay: Alkaline phosphatase (ALP) enzymatic activity assay, MC3T3-E1; format: cell-based, mouse; conditions: MC3T3-E1, 13 days post-treatment
Source text: ALP is an enzyme synthesized by osteoblasts. It hydrolyses phosphoric esters which inhibit the mineralization by releasing a hydroxyl group and a phosphate. The osteoblasts produce matrix vesicles, reservoirs of alkaline phosphatases and ions, which, when released into the extracellular medium, would initiate the mineralization of the osteoid tissue by promoting the local concentrations of calcium ions and phosphates. Cells have been seeded in 6-well plates at 63700 cells/well for MC3T3-E1 and at 182000 cells/well for HOb.
After the PBS rinses, 50 μl of ALP Assay Buffer were added to the wells, the bottom of the wells was scraped and then the 50 μl were taken. A centrifugation for 3 minutes at 13000 G was carried out to remove the insoluble material. In a 96-well plate, 10 μl of each sample to be tested are placed with 70 μl of the ALP Assay buffer and 50 μl of the 5 mM pNPP solution. In parallel, the calibration range was prepared by placing, in the same 96-well plate. The reaction was incubated for 60 min at 25° C., shielded from light. The reaction was stopped by adding 20 μl of the Stop Solution. The optical density was measured at 405 nm.
After the ALP enzymatic activity assay, a protein assay was performed in order to normalize the results of the ALP assay depending on the number of proteins. […] The optical density was measured at 565 nm to determine the amount of proteins.

smooth muscle cells = assay: Calcium production by smooth muscle cells; format: cell-based; conditions: non-calcifying control condition; DP2 5-50 μM (FIG. 5)
Source text: FIG. […]
This therefore reinforces the hypothesis that DP2 will not induce any calcification on cells other than the osteoblastic cells.

CCCO[C@H]1OC(CO)[C@@H](O[C@@H]2OC(CO)[C@@H](O)C(O)C2NC(C)=O)C(O)C1OC(C)=O (stereo partly drawn) [DP2, n-propyl, 2-O-acetyl-α-D-Glucopyranoside, 4-O-(2-acetamido-2-deoxy-β-D-glucopyranosyl)] was tested, and the “cell viability, MTT test” value (HOb cells) was “no significant difference”, the “ALP enzymatic activity relative to the mineralized medium alone (100%)” value (MC3T3-E1 cells; 15 μM) was 118.907±10.466% and the “ALP enzymatic activity relative to the mineralized medium alone (100%)” value (MC3T3-E1 cells; printed 15 μM (second mention)) was 148.833±15.761%. For the same compound, the “pro-calcifying action on the smooth muscle cells” value (smooth muscle cells) was “no pro-calcifying action”.
